Common to all, as to assay: NCI tumour cell line growth inhibition, 48 h
For assay [1], the system named is OVCAR-5 ovarian.
Assay [2] has as its system SN12C renal.
Assay [3] deals with ACHN renal.
The subject of assay [4] is HT29 colon.
Assay [5] has as its system SR leukemia.
The test system of assay [6] is HL-60(TB) leukemia.
Assay [7] relates to SK-MEL-28 melanoma.
Assay [8] concerns K-562 leukemia.
Assay [9] concerns NCI-H522 lung.

The structures appear in SMILES notation.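 Cultured in 96-well plates, cells were exposed to test compound for 48 hours across five concentrations. Abbreviation: GI50, concentration required for 50% inhibition of growth. TGI: total growth inhibition.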

As for `COc1ccc(-c2nc(-c3nc4cc(C)c(C)cc4[nH]3)cc3c2[nH]c2ccccc23)cc1`, the GI50 was 4.01 µM in assay [1]; 5.54 µM in assay [2]; 2.6 µM in assay [3]; 3.76 µM in [4]; 2.33 µM in assay [5]; 2.59 µM in assay [6]. The GI50 in assay [7] was 2.89 µM; in [8], 3.36 µM; in assay [9], 3 µM. Moreover, the TGI in assay [1] is above 100 µM; in [2] it was above 100 µM; in assay [3], 27.9 µM; in assay [4], above 100 µM; in assay [5] it was 7.17 µM; in assay [6] it was 5.96 µM. The results for the TGI in [7], in assay [8] and in [9] were 10.5 µM, 20.9 µM and 13.5 µM, respectively.

Turning to `CCOC(=O)c1c(Cl)c2c(n1Cc1cc(OC)cc(OC)c1)-c1oncc1CCC2`, the GI50 in assay [1] is 0.812 µM; in assay [2], 0.77 µM; in assay [3], 1.54 µM; in [4] it was 0.314 µM; in assay [5] it was 0.121 µM; in [6], 0.293 µM. Also, the GI50 was 0.554 µM in assay [7], 0.225 µM in assay [8] and 0.0304 µM in assay [9]. Moreover, the TGI in [1] is above 100 µM; in assay [2], above 100 µM; in assay [3], above 100 µM; in assay [4], 68 µM; in assay [5], above 100 µM; in assay [6], 1.03 µM. The TGI in [7] was above 100 µM; in assay [8] it was above 100 µM; in assay [9], 0.195 µM.

As for `COc1ccc(F)cc1C(=O)c1cnc(NC2CCN(S(C)(=O)=O)CC2)nc1N`, the GI50 in [1] was 1.4 µM; in assay [2], 4.92 µM; in assay [3], 1.55 µM; in assay [4] it was 2.86 µM; in assay [5], 0.885 µM; in assay [6], 1.66 µM. For the same compound, the GI50 in assay [7] is 3.38 µM; in [8], 6.25 µM; in assay [9], 4.3 µM. The TGI is above 14.7 µM in assay [1]; above 25 µM in assay [2]; above 21.4 µM in assay [3]; above 18.2 µM in assay [4]; above 14.8 µM in [5]; 18.1 µM in [6]. The TGI is above 16.4 µM in assay [7], above 25 µM in [8] and 14.7 µM in assay [9].

As to `COc1cc(C(=O)n2nc(N3CCN(C)CC3)c3cc(N)ccc32)cc(OC)c1OC`, the GI50 in assay [1] is 8.18 µM; in assay [2], 4.42 µM; in assay [3] it was 4.2 µM; in assay [4], 3.65 µM; in [5], 3.64 µM; in [6], 2.16 µM. Further, the GI50 in [7] is 14 µM; in assay [8] it was 3.57 µM; in assay [9] it was 2.01 µM. For the same compound, the TGI in [1] is above 100 µM; in [2] it was above 100 µM; in [3] it was above 100 µM; in assay [4], 14.9 µM; in [5] it was 53.3 µM; in assay [6], 5.14 µM. Moreover, the results for the TGI in [7], in [8] and in [9] were 99.4 µM, 13.2 µM and 8.87 µM, respectively.

As to `O=C(C=Nc1ccccc1C(=O)[O-])c1cccs1.O=C(C=Nc1ccccc1C(=O)[O-])c1cccs1.[Cu+2]`, the TGI in assay [1], in assay [2], in [3], in [4], in [5] and in assay [6] was above 100 µM each time. For the same compound, the TGI in [7], in [8] and in assay [9] was above 100 µM each time.

On to `NC(=O)Oc1cc(OC(N)=O)cc(N(CCCl)CCCl)c1`, for which the GI50 in assay [1] was 4.35 µM; in assay [2], 2.41 µM; in assay [4], 10.8 µM; in assay [5], 1.04 µM; in assay [6] it was 1.58 µM; in assay [7], 15.7 µM. Besides, the figures for the GI50 in [8] and in [9] were 10 µM and 2.08 µM, respectively. Further, the TGI is 30 µM in assay [1]; above 100 µM in [2]; 51.4 µM in assay [4]; above 100 µM in assay [5]; above 100 µM in assay [6]; 65.3 µM in assay [7]. Moreover, the TGI in [8] is above 100 µM; in assay [9], 6.12 µM.

Regarding `CC1OC(O)CC(OC(=O)c2ccccc2)C1OC(=O)c1ccccc1` (stereo unspecified), the TGI was above 100 µM in [1]; 32.3 µM in [2]; above 100 µM in [3]; 42.2 µM in [4]; 37.1 µM in assay [5]; 36 µM in [6]. The TGI in assay [7] was 29.6 µM; in [8], 57.5 µM; in assay [9], above 100 µM.
